{"source": "patent US8906960B2", "about": "“Synergistic effect of tocotrienols and curcumin” (Malaysian Palm Oil Board, priority 2010, dated 2014)", "key": {"[1]": {"tested_on": "B16F-10 melanoma lung metastasis", "conditions": "cited from earlier work"}, "[2]": {"tested_on": "MCF-7 human breast cancer cells", "assay": "Cell growth experiment: inhibition of proliferation of MCF-7 cells (viable cell count after 72 hours)", "format": "cell-based", "method": "Stock solution of TRF and curcumin was prepared in dimethyl sulfoxide (DMSO) at a concentration of 10 mg/mL. For cell growth experiments (as described below), treatments of TRF and curcumin were diluted in phenol red-free RPMI 1640 medium supplemented with 5% dextran-charcoal-treated […]) to final concentrations of 1-100 μM in test medium. MCF-7 cells were suspended from T75 flask by treatment of trypsin to an equal volume of phenol red free RPMI 1640 medium supplemented with 5% dextran-charcoal treated […]), 1% penicillin-streptomycin, 1% L-glutamine and counted on a haemocytometer. Cells were added to the required volume of phenol red free RPMI medium supplemented with 5% dextran-charcoal treated […]), 1% penicillin-streptomycin, 1% L-glutamine. […] MCF-7 cells were seeded in each well of 24-well tissue culture dishes. […] Cell proliferation was measured by using an automated particle counter, Beckman Coulter Particle Counter. […] The nuclei released were counted in isoton on a Coulter particle counter. […] The IC50 value was calculated as an average of three generated value of each replicates. Comparisons between means of six groups were assessed for significance. […]"}, "[3]": {"tested_on": "PC-3, a prostate cancer cell", "conditions": "PC-3 prostate cancer cell; cited from earlier work"}, "[4]": {"tested_on": "vascular cell adhesion molecule-1 (VCAM-1) expression; THP-1 adhesion to HUVECs", "conditions": "suppression of VCAM-1 expression and THP-1 adhesion to HUVECs; cited from earlier work"}}, "data": [{"molecule": "COc1cc(/C=C/C(=O)CC(=O)/C=C/c2ccc(O)c(OC)c2)ccc1O", "note": "[Curcumin]", "values": [{"measurement": "Increase of life span of the animals", "setting": "[1]; mice treated with curcumin", "value": 143.85, "unit": "%"}, {"measurement": "Reduction of the number of lung tumor nodules", "setting": "[1]; oral administration, 200 nmol/kg body weight, mice", "value": 80, "unit": "%"}, {"measurement": "IC50", "setting": "[2]; Homo sapiens, MCF7, MCF-7 cells, 72 hours, 10^-8 M estradiol, test compounds 1-100 μM, combinations with 1 μM of the second ingredient", "value": 25.3, "unit": "µM"}, {"measurement": "Effect of curcumin on the anti-proliferative effect of tocotrienols", "setting": "[2]; estrogen-positive MCF-7 human breast cancer cells in vitro", "value": "synergistically enhanced the anti-proliferative effect of tocotrienols"}]}, {"molecule": "Cc1c(C)c2c(c(C)c1O)CC[C@@](C)(CCC[C@H](C)CCC[C@H](C)CCCC(C)C)O2", "note": "[α-tocopherol]", "values": [{"measurement": "Effect on proliferation of PC-3", "setting": "[3]", "value": "no significant effects"}]}, {"molecule": "CC(C)=CCC/C(C)=C/CC/C(C)=C/CC[C@]1(C)CCc2c(C)c(O)c(C)c(C)c2O1", "note": "[α-tocotrienol]", "values": [{"measurement": "Efficacy relative to α-tocopherol", "setting": "[4]", "value": 10, "unit": "fold"}]}, {"molecule": "CC(C)=CCC/C(C)=C/CC/C(C)=C/CC[C@]1(C)CCc2cc(O)c(C)c(C)c2O1", "note": "[γ-tocotrienol]", "values": [{"measurement": "Effect on proliferation of PC-3", "setting": "[3]", "value": "inhibit the proliferation"}]}, {"molecule": "CC(C)=CCC/C(C)=C/CC/C(C)=C/CC[C@]1(C)CCc2cc(O)cc(C)c2O1", "note": "[δ-tocotrienol]", "values": [{"measurement": "Effect on proliferation of PC-3", "setting": "[3]", "value": "inhibit the proliferation"}]}]}
